# Read-outs that look alike come from different tables or passages of the source.
# Tests used:
# Assay in all cases: Kinase selectivity, P33-radiolabeled assay
# Type in all cases: biochemical
# DDR1 = molecular target: T1, DDR1 (Homo sapiens, UniProt Q08345); details: 10 μM ATP
# T1 construct: purchased Reaction Biology Corp
# Procedure, shortened: (§1)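 Each enzyme was exposed to 10 μM compound, with duplicate measurements, in reactions containing 10 μM ATP. Numbers are remaining activity as a percent of the vehicle (DMSO) signal.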
# DRAK1/STK17A = molecular target: T2, DRAK1/STK17A (Homo sapiens, UniProt Q9UEE5); details: 10 μM ATP
# T2 construct: purchased Reaction Biology Corp
# T2 sequence (Q9UEE5 1-414): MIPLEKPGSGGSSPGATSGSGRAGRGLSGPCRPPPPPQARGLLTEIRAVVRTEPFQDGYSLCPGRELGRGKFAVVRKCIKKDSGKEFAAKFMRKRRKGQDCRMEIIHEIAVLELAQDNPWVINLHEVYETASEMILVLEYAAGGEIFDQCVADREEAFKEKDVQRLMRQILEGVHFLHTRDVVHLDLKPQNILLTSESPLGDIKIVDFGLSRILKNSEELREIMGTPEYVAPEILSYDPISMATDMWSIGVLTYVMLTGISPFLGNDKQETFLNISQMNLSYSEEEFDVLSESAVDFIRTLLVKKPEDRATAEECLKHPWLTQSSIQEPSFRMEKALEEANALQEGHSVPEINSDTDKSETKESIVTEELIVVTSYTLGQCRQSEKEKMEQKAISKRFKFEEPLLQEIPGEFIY
# Procedure, shortened: as §1
# TAOK2/TAO1 = molecular target: T3, TAOK2/TAO1 (Homo sapiens, UniProt Q9UL54); details: 10 μM ATP
# T3 construct: purchased Reaction Biology Corp
# T3 sequence (Q9UL54 1-1235): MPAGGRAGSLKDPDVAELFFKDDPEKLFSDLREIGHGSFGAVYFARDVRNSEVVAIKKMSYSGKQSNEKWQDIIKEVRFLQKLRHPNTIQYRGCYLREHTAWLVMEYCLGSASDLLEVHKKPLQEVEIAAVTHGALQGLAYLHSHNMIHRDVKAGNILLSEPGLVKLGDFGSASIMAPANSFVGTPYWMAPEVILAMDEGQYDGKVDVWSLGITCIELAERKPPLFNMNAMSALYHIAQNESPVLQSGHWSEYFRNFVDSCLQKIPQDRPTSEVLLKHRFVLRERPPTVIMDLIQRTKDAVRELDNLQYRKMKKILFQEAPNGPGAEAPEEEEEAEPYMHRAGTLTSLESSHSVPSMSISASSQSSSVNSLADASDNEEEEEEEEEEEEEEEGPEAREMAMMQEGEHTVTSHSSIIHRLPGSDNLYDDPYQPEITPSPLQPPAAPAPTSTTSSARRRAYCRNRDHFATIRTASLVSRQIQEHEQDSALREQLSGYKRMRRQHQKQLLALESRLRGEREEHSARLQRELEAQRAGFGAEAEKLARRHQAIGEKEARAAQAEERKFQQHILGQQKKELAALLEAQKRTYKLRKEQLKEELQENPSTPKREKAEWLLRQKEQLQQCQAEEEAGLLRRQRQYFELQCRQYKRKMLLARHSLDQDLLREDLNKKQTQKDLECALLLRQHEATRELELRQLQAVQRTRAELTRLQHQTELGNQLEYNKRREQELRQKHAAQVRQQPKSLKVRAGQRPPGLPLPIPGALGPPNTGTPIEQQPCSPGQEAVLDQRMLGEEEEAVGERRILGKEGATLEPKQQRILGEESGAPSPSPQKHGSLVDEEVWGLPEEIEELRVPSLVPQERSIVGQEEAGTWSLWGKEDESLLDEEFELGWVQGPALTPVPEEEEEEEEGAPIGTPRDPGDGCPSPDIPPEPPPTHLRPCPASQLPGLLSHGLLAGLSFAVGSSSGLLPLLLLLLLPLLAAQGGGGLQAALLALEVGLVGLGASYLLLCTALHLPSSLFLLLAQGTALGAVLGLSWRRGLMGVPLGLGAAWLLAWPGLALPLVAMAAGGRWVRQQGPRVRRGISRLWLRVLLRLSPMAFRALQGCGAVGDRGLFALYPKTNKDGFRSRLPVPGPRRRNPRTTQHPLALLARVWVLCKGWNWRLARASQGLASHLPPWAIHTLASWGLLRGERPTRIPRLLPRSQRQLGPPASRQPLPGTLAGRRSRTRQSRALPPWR
# Procedure, shortened: as §1
# DMPK2 = molecular target: T4, DMPK2 (Homo sapiens, UniProt Q6DT37); details: 10 μM ATP
# T4 construct: purchased Reaction Biology Corp
# T4 sequence (Q6DT37 whole entry): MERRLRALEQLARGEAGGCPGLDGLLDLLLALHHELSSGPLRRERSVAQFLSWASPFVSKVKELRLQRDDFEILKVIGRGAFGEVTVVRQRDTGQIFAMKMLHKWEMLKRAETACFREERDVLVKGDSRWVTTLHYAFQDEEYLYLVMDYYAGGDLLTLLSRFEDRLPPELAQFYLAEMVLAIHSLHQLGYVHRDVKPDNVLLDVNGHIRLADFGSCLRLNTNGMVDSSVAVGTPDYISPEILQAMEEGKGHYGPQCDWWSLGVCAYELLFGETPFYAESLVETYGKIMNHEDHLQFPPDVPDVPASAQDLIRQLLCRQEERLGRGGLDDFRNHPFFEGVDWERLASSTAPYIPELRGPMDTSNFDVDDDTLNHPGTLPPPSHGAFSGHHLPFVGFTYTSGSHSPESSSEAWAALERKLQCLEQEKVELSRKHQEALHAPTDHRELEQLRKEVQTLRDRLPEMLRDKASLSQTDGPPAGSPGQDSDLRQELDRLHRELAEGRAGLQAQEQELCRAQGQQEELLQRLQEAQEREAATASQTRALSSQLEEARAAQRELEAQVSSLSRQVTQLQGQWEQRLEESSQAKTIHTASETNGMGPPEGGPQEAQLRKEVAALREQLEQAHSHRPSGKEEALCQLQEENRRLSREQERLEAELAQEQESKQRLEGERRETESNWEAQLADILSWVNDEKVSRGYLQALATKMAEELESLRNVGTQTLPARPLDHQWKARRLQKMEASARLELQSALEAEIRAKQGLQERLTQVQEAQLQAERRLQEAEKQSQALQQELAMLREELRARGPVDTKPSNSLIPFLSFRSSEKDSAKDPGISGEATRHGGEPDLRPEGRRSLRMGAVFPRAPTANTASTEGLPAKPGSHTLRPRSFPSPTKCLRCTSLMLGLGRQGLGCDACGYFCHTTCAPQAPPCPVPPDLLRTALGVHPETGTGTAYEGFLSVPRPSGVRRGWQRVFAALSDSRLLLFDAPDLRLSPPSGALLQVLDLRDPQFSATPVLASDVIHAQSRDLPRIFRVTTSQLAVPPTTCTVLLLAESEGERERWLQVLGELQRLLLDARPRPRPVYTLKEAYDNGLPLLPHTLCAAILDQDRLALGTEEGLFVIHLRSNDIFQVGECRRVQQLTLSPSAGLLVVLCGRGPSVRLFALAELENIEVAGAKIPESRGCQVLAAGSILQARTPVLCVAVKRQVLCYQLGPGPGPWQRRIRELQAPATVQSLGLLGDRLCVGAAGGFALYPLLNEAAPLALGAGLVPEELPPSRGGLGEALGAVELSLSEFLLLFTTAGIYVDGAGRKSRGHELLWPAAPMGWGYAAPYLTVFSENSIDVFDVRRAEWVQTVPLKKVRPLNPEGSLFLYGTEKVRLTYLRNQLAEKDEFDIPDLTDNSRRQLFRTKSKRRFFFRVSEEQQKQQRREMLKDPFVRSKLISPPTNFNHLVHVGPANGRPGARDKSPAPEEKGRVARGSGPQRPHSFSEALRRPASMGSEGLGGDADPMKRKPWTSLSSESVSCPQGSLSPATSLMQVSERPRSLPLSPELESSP
# Procedure, shortened: as §1
# PLK3 = molecular target: T5, PLK3 (Homo sapiens, UniProt Q9H4B4); details: 10 μM ATP
# T5 construct: purchased Reaction Biology Corp
# T5 sequence (Q9H4B4 whole entry): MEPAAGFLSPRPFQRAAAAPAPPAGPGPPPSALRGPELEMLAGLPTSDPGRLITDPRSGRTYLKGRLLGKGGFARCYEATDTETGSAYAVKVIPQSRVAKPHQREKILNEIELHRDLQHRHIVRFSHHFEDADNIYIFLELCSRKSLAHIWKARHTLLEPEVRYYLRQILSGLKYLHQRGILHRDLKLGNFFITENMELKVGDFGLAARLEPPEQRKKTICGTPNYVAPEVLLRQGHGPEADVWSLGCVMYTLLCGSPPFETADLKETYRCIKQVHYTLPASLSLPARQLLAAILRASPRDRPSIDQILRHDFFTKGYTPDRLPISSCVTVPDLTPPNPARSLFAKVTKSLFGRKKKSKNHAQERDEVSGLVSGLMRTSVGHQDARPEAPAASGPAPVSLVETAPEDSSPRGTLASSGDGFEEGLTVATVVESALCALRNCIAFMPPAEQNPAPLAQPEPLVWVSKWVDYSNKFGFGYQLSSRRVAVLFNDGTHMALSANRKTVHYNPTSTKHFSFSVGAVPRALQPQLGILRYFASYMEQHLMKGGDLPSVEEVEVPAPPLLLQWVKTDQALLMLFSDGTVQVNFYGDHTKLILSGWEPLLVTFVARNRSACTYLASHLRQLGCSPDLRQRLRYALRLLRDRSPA
# Procedure, shortened: as §1
# CSK = molecular target: T6, CSK (Homo sapiens, UniProt P41240); details: 10 μM ATP
# T6 construct: purchased Reaction Biology Corp
# T6 sequence (P41240 whole entry): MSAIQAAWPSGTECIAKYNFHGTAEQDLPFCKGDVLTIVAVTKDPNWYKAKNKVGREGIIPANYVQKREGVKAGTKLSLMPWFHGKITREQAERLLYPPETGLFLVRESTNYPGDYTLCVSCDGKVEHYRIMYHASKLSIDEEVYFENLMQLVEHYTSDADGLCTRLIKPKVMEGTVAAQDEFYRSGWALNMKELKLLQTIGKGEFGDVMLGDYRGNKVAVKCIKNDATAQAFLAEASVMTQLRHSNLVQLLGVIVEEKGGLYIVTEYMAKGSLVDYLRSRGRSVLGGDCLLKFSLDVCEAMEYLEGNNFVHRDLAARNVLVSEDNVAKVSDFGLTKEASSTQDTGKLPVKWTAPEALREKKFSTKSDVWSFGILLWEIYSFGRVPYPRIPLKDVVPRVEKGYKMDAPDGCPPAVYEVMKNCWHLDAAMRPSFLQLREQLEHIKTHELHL
# Procedure, shortened: as §1
# PRKX = molecular target: T7, PRKX (Homo sapiens, UniProt P51817); details: 10 μM ATP
# T7 construct: purchased Reaction Biology Corp
# T7 sequence (P51817 1-358): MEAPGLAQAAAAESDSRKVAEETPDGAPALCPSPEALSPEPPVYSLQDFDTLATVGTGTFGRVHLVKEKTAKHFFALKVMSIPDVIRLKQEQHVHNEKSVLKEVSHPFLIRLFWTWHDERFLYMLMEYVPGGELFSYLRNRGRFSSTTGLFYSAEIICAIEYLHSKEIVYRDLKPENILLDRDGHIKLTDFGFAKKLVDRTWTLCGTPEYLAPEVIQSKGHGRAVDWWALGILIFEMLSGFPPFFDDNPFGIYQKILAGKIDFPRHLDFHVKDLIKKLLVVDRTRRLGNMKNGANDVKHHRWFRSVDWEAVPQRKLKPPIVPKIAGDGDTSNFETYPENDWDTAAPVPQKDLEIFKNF
# Procedure, shortened: as §1
# WNK2 = molecular target: T8, WNK2 (Homo sapiens, UniProt Q9Y3S1); details: 10 μM ATP
# T8 construct: purchased Reaction Biology Corp
# Procedure, shortened: as §1
# ROS/ROS1 = molecular target: T9, ROS/ROS1 (Homo sapiens, UniProt P08922)
# T9 construct: purchased Reaction Biology Corp
# Procedure, shortened: as §1
# [1] = read-out: % Enzyme Activity (relative to DMSO controls) AVG
# [2] = read-out: % Enzyme Activity (relative to DMSO controls) Data 1
# [3] = read-out: % Enzyme Activity (relative to DMSO controls) Data 2
# T1 sequence (Q08345 19-913): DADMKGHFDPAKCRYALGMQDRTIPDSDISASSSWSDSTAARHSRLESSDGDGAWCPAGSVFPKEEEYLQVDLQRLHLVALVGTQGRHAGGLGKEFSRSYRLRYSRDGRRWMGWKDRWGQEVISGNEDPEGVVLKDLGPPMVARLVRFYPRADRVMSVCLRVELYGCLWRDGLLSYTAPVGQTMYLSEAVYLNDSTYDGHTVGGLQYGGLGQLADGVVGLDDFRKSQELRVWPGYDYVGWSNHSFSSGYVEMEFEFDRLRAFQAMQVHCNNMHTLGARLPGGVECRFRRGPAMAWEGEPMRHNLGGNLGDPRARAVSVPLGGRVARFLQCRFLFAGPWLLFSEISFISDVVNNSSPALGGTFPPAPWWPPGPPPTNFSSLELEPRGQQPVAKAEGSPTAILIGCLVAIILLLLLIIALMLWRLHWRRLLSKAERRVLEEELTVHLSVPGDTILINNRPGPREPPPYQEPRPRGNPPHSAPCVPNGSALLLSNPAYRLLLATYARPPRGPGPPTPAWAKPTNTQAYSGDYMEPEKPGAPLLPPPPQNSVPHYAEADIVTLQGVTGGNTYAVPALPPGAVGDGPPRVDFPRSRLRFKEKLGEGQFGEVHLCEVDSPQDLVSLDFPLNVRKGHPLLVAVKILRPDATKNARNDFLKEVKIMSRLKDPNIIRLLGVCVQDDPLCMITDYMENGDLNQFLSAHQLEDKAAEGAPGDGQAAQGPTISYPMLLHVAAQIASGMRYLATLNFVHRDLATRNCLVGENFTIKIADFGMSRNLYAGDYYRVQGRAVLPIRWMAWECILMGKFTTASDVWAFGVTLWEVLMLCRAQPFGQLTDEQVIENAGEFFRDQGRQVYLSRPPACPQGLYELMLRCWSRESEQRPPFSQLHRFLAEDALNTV
smiles,measurement,setting,value
CC(C)(C)C(=O)N1N=CC[C@H]1c1ccccc1 [GSK′963],remaining activity at 10 µM,DDR1; [1],96%
same,remaining activity at 10 µM,DDR1; [2],94%
same,remaining activity at 10 µM,DDR1; [3],97.9%
same,remaining activity at 10 µM,DRAK1/STK17A; [1],99.7%
same,remaining activity at 10 µM,DRAK1/STK17A; [2],98.1%
same,remaining activity at 10 µM,DRAK1/STK17A; [3],101%
same,remaining activity at 10 µM,TAOK2/TAO1; [1],95.6%
same,remaining activity at 10 µM,TAOK2/TAO1; [2],97%
same,remaining activity at 10 µM,TAOK2/TAO1; [3],94.2%
same,remaining activity at 10 µM,DMPK2; [1],139%
same,remaining activity at 10 µM,DMPK2; [2],140%
same,remaining activity at 10 µM,DMPK2; [3],139%
same,remaining activity at 10 µM,PLK3; [1],92.5%
same,remaining activity at 10 µM,PLK3; [2],95.5%
same,remaining activity at 10 µM,PLK3; [3],89.5%
same,remaining activity at 10 µM,CSK; [1],104%
same,remaining activity at 10 µM,CSK; [2],104%
same,remaining activity at 10 µM,CSK; [3],103%
same,remaining activity at 10 µM,PRKX; [1],107%
same,remaining activity at 10 µM,PRKX; [2],106%
same,remaining activity at 10 µM,PRKX; [3],107%
same,remaining activity at 10 µM,WNK2; [1],97.4%
same,remaining activity at 10 µM,WNK2; [2],99.3%
same,remaining activity at 10 µM,WNK2; [3],95.5%
same,remaining activity at 10 µM,"ROS/ROS1; 10 uM, 10 μM ATP, read-out: % Enzyme Activity (relative to DMSO controls) Data 1",102%
same,remaining activity at 10 µM,"ROS/ROS1; 10 uM, 10 μM ATP, read-out: % Enzyme Activity (relative to DMSO controls) Data 2",100%
same,remaining activity at 10 µM,ROS/ROS1; [1],101%

# Source: PMC4979471 (Cell Death Discovery, 2015)
